In patent publication US5624812A, “Method for measuring carbon dioxide and reagent therefor” (Toyo Boseki Kabushiki Kaisha, priority 1993, dated 1997):

Key:
[1] = molecular target: T1, phosphoenolpyruvate carboxylase yielded by Acetobacter hansenii IFO 14820 (ATCC 35959) (Novacetimonas hansenii, UniProt A0ABQ0SBC7)
T1 sequence (A0ABQ0SBC7 1-933): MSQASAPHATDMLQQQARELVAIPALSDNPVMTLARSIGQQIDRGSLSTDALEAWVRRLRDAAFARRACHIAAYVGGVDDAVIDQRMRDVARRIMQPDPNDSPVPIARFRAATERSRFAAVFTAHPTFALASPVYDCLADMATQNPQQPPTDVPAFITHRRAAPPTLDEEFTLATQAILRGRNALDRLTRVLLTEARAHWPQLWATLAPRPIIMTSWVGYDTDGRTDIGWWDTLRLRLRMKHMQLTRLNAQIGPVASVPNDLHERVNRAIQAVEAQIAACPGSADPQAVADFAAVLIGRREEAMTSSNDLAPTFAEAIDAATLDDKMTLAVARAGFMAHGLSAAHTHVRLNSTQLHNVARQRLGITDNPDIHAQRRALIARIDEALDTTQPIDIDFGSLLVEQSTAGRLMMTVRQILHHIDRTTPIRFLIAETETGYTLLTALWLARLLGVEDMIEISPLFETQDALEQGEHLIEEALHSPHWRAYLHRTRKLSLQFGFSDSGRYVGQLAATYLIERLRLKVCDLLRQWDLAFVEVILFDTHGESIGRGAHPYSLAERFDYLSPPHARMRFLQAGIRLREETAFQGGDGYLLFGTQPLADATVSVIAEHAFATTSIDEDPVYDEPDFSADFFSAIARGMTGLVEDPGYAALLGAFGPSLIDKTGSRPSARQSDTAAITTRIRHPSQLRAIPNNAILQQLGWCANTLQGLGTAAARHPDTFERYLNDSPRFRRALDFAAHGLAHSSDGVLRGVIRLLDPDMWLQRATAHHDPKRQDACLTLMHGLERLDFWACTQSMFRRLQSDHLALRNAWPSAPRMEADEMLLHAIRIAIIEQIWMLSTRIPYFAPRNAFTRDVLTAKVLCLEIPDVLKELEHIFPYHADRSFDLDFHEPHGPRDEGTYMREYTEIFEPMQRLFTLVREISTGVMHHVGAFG
Protocol: A reaction mixture (2.9 ml) containing 50 mM Tris-HCl, 10 mM Na2 CO3, 3.2 mM phosphoenolpyruvic acid, 100 mM MgSO4, 0.14 mM NADH and 50 U/ml malate dehydrogenase is prepared in a cuvette (d=1 cm) and preheated at 30° C. for about 5 minutes. An enzyme solution (0.1 ml) is added thereto and the mixture is gently stirred. A change in absorbance at 340 nm is recorded for 2-3 minutes with a spectrophotometer using water adjusted to 30° C. as a control, and change in absorbance per minute is calculated from the initial linear portion thereof (ΔOD test). A blank test is performed by using 50 mM phosphate buffer (pH 7.0) in place of the enzyme solution and following the steps to determine changes in absorbance per minute (ΔOD blank).

[2] = substrate: C=C(OP(=O)(O)O)C(=O)O; assay: purified protein, by the assay type; conditions: pH 7.0; 30.0 °C

CC(=O)SCCNC(=O)CCNC(=O)[C@H](O)C(C)(C)COP(=O)(O)OP(=O)(O)OC[C@H]1O[C@@H](n2cnc3c(N)ncnc32)[C@H](O)[C@@H]1OP(=O)(O)O [acetyl CoA]
Activation by acetyl CoA [1]: Not activated

Nc1ncnc2c1ncn2[C@@H]1O[C@H](COP(=O)(O)OP(=O)(O)O)[C@@H](O)[C@H]1O [ADP]
Inhibition by ADP [1]: Not inhibited

B1: phosphoenolpyruvate carboxylase yielded by Acetobacter hansenii IFO 14820 (ATCC 35959) (Novacetimonas hansenii) (protein)
chain: T1 sequence (A0ABQ0SBC7 1-933)
Km [2]: 210 µM
